“And” between values parts separate entries of the source, which are not always exact repeats. Equal entries are not always repeated.
Columns and labels:
[1] = Micro-SPECT/CT imaging of mice bearing LNCaP95 and PC3 xenografts; format: in vivo, male castrated NOD/SCID mice
[2] = In vivo biodistribution in mice bearing LNCaP95 and PC3 xenografts; parameters: species or system male castrated NOD/SCID mice
[3] = target: T1, recombinant full-length AR (Homo sapiens, UniProt P10275); assay: Cell-free binding to recombinant full-length AR; conditions: 16 hours at room temperature
T1 sequence (P10275 1-920): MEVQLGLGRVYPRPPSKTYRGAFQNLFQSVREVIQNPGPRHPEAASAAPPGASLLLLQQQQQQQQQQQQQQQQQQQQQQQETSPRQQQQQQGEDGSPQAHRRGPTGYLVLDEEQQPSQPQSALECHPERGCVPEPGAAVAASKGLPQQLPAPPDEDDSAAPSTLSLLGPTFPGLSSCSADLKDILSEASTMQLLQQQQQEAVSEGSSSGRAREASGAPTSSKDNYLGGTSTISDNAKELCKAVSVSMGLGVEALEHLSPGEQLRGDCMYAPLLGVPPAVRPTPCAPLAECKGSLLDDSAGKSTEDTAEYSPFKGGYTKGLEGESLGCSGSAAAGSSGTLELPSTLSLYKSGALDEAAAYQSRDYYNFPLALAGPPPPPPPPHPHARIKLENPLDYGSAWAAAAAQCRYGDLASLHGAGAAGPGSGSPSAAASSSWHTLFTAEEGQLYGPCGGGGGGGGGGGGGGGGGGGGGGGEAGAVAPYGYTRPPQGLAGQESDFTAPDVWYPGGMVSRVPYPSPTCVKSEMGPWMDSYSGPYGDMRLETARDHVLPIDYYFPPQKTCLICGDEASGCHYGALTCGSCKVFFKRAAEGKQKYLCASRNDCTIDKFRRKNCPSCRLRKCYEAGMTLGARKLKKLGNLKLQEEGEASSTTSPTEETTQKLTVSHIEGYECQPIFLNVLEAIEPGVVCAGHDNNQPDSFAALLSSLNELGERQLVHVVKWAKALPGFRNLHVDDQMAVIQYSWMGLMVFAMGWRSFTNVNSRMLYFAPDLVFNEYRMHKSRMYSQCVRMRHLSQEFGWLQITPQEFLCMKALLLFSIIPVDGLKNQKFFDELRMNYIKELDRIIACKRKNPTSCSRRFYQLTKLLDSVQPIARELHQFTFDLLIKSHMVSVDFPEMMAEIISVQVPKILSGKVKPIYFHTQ

[4] = tested on: endogenous AR; assay: Binding to endogenous AR in LNCaP95 cells; format: cell-based, human; conditions: 16 hours
[5] = Biodistribution with blocking by excess cold EPI-002; format: in vivo, male castrated NOD/SCID mice; conditions: excess cold EPI-002 50 mg/kg body weight; 1 hour

- LNCaP95 tumor uptake (SPECT) ([1]; 2 hours after injection): 1.09% ± 0.41%
- thyroid uptake ([1]; blocking with EPI-002): 2.32% ± 0.33%
- thyroid uptake ([1]; unblocked): approximately 2.31% ± 0.59%
- Bladder uptake ([2]; 0 h after injection): 0.79 ± 0.49 %ID/g
- Blood uptake ([2]; 0 h after injection): 12.57 ± 2.03 %ID/g
- Bone uptake ([2]; 0 h after injection): 1.09 ± 0.75 %ID/g
- Brain uptake ([2]; 0 h after injection): 1.29 ± 0.55 %ID/g
- Heart uptake ([2]; 0 h after injection): 7.62 ± 1.86 %ID/g
- Kidney uptake ([2]; 0 h after injection): 5.57 ± 2.37 %ID/g
- Large intestine uptake ([2]; 0 h after injection): 0.70 ± 0.42 %ID/g
- Liver uptake ([2]; 0 h after injection): 5.03 ± 3.29 %ID/g
- Lung uptake ([2]; 0 h after injection): 5.19 ± 1.59 %ID/g
- Muscle uptake ([2]; 0 h after injection): 1.60 ± 1.89 %ID/g
- Negative tumor (PC3) uptake ([2]; 0 h after injection): 0.19 ± 0.06 %ID/g
- Positive tumor (LNCaP95) uptake ([2]; 0 h after injection): 0.17 ± 0.06 %ID/g
- Ratio LNCaP95/PC3 ([2]; 0 h after injection): 0.9
- Ratio LNCaP95/blood ([2]; 0 h after injection): 0.01
- Ratio LNCaP95/kidney ([2]; 0 h after injection): 0.03
- Ratio LNCaP95/liver ([2]; 0 h after injection): 0.04
- Ratio LNCaP95/muscle ([2]; 0 h after injection): 0.22
- Small intestine uptake ([2]; 0 h after injection): 2.44 ± 1.05 %ID/g
- Spleen uptake ([2]; 0 h after injection): 1.15 ± 1.04 %ID/g
- Stomach uptake ([2]; 0 h after injection): 1.80 ± 1.60 %ID/g
- Bladder uptake ([2]; 1 h after injection): 1.47 ± 0.65 %ID/g
- Blood uptake ([2]; 1 h after injection): 0.74 ± 0.30 %ID/g
- Bone uptake ([2]; 1 h after injection): 1.03 ± 0.31 %ID/g
- Brain uptake ([2]; 1 h after injection): 1.68 ± 0.67 %ID/g
- Gallbladder uptake ([2]; 1 h after injection): 10.09 ± 6.60 %ID/g
- Heart uptake ([2]; 1 h after injection): 2.25 ± 0.50 %ID/g
- Kidney uptake ([2]; 1 h after injection): 3.07 ± 0.90 %ID/g
- Large intestine uptake ([2]; 1 h after injection): 1.22 ± 0.34 %ID/g
- Liver uptake ([2]; 1 h after injection): 7.76 ± 0.95 %ID/g
- Lung uptake ([2]; 1 h after injection): 2.40 ± 1.01 %ID/g
- Muscle uptake ([2]; 1 h after injection): 1.34 ± 0.40 %ID/g
- Ratio LNCaP95/PC3 ([2]; 1 h after injection): 3.2
- Ratio LNCaP95/blood ([2]; 1 h after injection): 3.58 ± 0.66 and 3.58
- Ratio LNCaP95/kidney ([2]; 1 h after injection): 0.71
- Ratio LNCaP95/liver ([2]; 1 h after injection): 0.29
- Ratio LNCaP95/muscle ([2]; 1 h after injection): 1.72
- Small intestine uptake ([2]; 1 h after injection): 7.43 ± 5.25 %ID/g
- Spleen uptake ([2]; 1 h after injection): 0.96 ± 0.23 %ID/g
- Stomach uptake ([2]; 1 h after injection): 1.73 ± 0.69 %ID/g
- Bladder uptake ([2]; 2 h after injection): 1.13 ± 0.55 %ID/g
- Blood uptake ([2]; 2 h after injection): 0.31 ± 0.08 %ID/g
- Bone uptake ([2]; 2 h after injection): 0.51 ± 0.11 %ID/g
- Brain uptake ([2]; 2 h after injection): 0.83 ± 0.21 %ID/g
- Gallbladder uptake ([2]; 2 h after injection): 2.12 ± 3.60 %ID/g
- Heart uptake ([2]; 2 h after injection): 1.04 ± 0.22 %ID/g
- Kidney uptake ([2]; 2 h after injection): 1.43 ± 0.58 %ID/g
- Large intestine uptake ([2]; 2 h after injection): 1.90 ± 2.02 %ID/g
- Liver uptake ([2]; 2 h after injection): 4.81 ± 1.13 %ID/g
- Lung uptake ([2]; 2 h after injection): 0.78 ± 0.19 %ID/g
- Muscle uptake ([2]; 2 h after injection): 0.49 ± 0.18 %ID/g
- Negative tumor (PC3) uptake ([2]; 2 h after injection): 0.35 ± 0.14 %ID/g
- Positive tumor (LNCaP95) uptake ([2]; 2 h after injection): 1.13 ± 0.16 %ID/g
- Ratio LNCaP95/PC3 ([2]; 2 h after injection): 3.3
- Ratio LNCaP95/blood ([2]; 2 h after injection): 3.74
- Ratio LNCaP95/kidney ([2]; 2 h after injection): 0.96
- Ratio LNCaP95/liver ([2]; 2 h after injection): 0.24
- Ratio LNCaP95/muscle ([2]; 2 h after injection): 2.51
- Small intestine uptake ([2]; 2 h after injection): 6.29 ± 3.72 %ID/g
- Spleen uptake ([2]; 2 h after injection): 0.71 ± 0.34 %ID/g
- Stomach uptake ([2]; 2 h after injection): 0.68 ± 0.31 %ID/g
- Bladder uptake ([2]; 4 h after injection): 0.52 ± 0.17 %ID/g
- Blood uptake ([2]; 4 h after injection): 0.25 ± 0.07 %ID/g
- Bone uptake ([2]; 4 h after injection): 0.39 ± 0.13 %ID/g
- Brain uptake ([2]; 4 h after injection): 0.55 ± 0.18 %ID/g
- Gallbladder uptake ([2]; 4 h after injection): 0.35 ± 0.03 %ID/g
- Heart uptake ([2]; 4 h after injection): 0.88 ± 0.18 %ID/g
- Kidney uptake ([2]; 4 h after injection): 1.05 ± 0.11 %ID/g
- Large intestine uptake ([2]; 4 h after injection): 66 %ID/g and 66.53 ± 34.05 %ID/g
- Liver uptake ([2]; 4 h after injection): 4.30 ± 0.68 %ID/g
- Lung uptake ([2]; 4 h after injection): 0.75 ± 0.24 %ID/g
- Muscle uptake ([2]; 4 h after injection): 0.45 ± 0.13 %ID/g
- Negative tumor (PC3) uptake ([2]; 4 h after injection): 0.50 ± 0.17 %ID/g
- Positive tumor (LNCaP95) uptake ([2]; 4 h after injection): 1.04 ± 0.14 %ID/g
- Ratio LNCaP95/PC3 ([2]; 4 h after injection): 2.1
- Ratio LNCaP95/blood ([2]; 4 h after injection): 4.38
- Ratio LNCaP95/kidney ([2]; 4 h after injection): 1.00
- Ratio LNCaP95/liver ([2]; 4 h after injection): 0.25
- Ratio LNCaP95/muscle ([2]; 4 h after injection): 2.57
- Small intestine uptake ([2]; 4 h after injection): 6.25 ± 2.18 %ID/g
- Spleen uptake ([2]; 4 h after injection): 0.55 ± 0.24 %ID/g
- Stomach uptake ([2]; 4 h after injection): 0.29 ± 0.19 %ID/g
- Bladder uptake ([2]; 6 h after injection): 0.39 ± 0.21 %ID/g
- Blood uptake ([2]; 6 h after injection): 0.17 ± 0.03 %ID/g
- Bone uptake ([2]; 6 h after injection): 0.21 ± 0.08 %ID/g
- Brain uptake ([2]; 6 h after injection): 0.39 ± 0.12 %ID/g
- Gallbladder uptake ([2]; 6 h after injection): 9.64 ± 16.02 %ID/g
- Heart uptake ([2]; 6 h after injection): 0.51 ± 0.13 %ID/g
- Kidney uptake ([2]; 6 h after injection): 0.65 ± 0.24 %ID/g
- Large intestine uptake ([2]; 6 h after injection): 47.42 ± 7.58 %ID/g
- Liver uptake ([2]; 6 h after injection): 2.92 ± 0.94 %ID/g
- Lung uptake ([2]; 6 h after injection): 0.50 ± 0.25 %ID/g
- Muscle uptake ([2]; 6 h after injection): 0.24 ±0.09 %ID/g
- Negative tumor (PC3) uptake ([2]; 6 h after injection): 0.49 ± 0.01 %ID/g
- Positive tumor (LNCaP95) uptake ([2]; 6 h after injection): 0.52 ± 0.10 %ID/g
- Ratio LNCaP95/PC3 ([2]; 6 h after injection): 1.1
- Ratio LNCaP95/blood ([2]; 6 h after injection): 3.12
- Ratio LNCaP95/kidney ([2]; 6 h after injection): 0.85
- Ratio LNCaP95/liver ([2]; 6 h after injection): 0.21
- Ratio LNCaP95/muscle ([2]; 6 h after injection): 2.56
- Small intestine uptake ([2]; 6 h after injection): 2.37 ± 1.43 %ID/g
- Spleen uptake ([2]; 6 h after injection): 0.30 ± 0.18 %ID/g
- Stomach uptake ([2]; 6 h after injection): 0.19 ± 0.08 %ID/g
- Bladder uptake ([2]; 12 h after injection): 0.09 ± 0.04 %ID/g
- Blood uptake ([2]; 12 h after injection): 0.07 ± 0.04 %ID/g
- Bone uptake ([2]; 12 h after injection): 0.07 ± 0.05 %ID/g
- Brain uptake ([2]; 12 h after injection): 0.10 ± 0.05 %ID/g
- Gallbladder uptake ([2]; 12 h after injection): 3.12 ± 0.81 %ID/g
- Heart uptake ([2]; 12 h after injection): 0.17 ± 0.10 %ID/g
- Kidney uptake ([2]; 12 h after injection): 0.16 ± 0.08 %ID/g
- Large intestine uptake ([2]; 12 h after injection): 27.02 ± 14.89 %ID/g
- Liver uptake ([2]; 12 h after injection): 1.06 ± 0.48 %ID/g
- Lung uptake ([2]; 12 h after injection): 0.16 ± 0.08 %ID/g
- Muscle uptake ([2]; 12 h after injection): 0.06 ± 0.03 %ID/g
- Negative tumor (PC3) uptake ([2]; 12 h after injection): 0.13 ± 0.13 %ID/g
- Positive tumor (LNCaP95) uptake ([2]; 12 h after injection): 0.15 ± 0.08 %ID/g
- Ratio LNCaP95/PC3 ([2]; 12 h after injection): 1.2
- Ratio LNCaP95/blood ([2]; 12 h after injection): 2.22
- Ratio LNCaP95/kidney ([2]; 12 h after injection): 0.92
- Ratio LNCaP95/liver ([2]; 12 h after injection): 0.14
- Ratio LNCaP95/muscle ([2]; 12 h after injection): 2.98
- Small intestine uptake ([2]; 12 h after injection): 2.14 ± 1.49 %ID/g
- Spleen uptake ([2]; 12 h after injection): 0.07 ± 0.03 %ID/g
- Stomach uptake ([2]; 12 h after injection): 1.78 ± 1.27 %ID/g
- binding to recombinant full-length AR [3]: binds to recombinant full-length AR
Substance: [^123I]15-iodoEPI002 [^123I-EPI-002]
- binding to endogenous AR in LNCaP95 cells [4]: binds covalently and specifically to AR
- decrease in ^123I-EPI-002 accumulation in the LNCaP95 xenograft by blocking [5]: 74%
